# Columns and labels:
# EGFR = EGFR (Homo sapiens (Human), UniProt P00533); assay: EGFR kinase inhibition, phosphotyrosine ELISA cytoblot; format: cell-based; conditions: A431 cells
# Experimental: Cells used were tumor cell lines naturally expressing high levels of EGFR (A431), VEGFR-2 (U251), and PDGFR-β (SH-SYSY). […] The reaction was stopped and cells were permeabilized by quickly removing the media from the cells and adding ice-cold Tris-buffered saline (TBS) containing 0.05% Triton X-100, protease inhibitor cocktail and tyrosine phosphatase inhibitor cocktail. The TBS solution was then removed and cells fixed to the plate for 30 min at 60° C. and further incubation in 70% ethanol for an additional 30 min. Cells were further exposed to block (TBS with 1% BSA) for 1 h, washed, and then a horseradish peroxidase (HRP)-conjugated phosphotyrosine (PY) antibody was added overnight.
# A431 cancer cells = assay: A431 cytotoxicity (cell proliferation); format: cell-based, human; conditions: Homo sapiens, A-431
# [1] = system: cellular microtubules in A-10 cells; assay: Microtubule depolymerization, indirect immunofluorescence; format: cell-based; conditions: for effect on cellular microtubules: in words
# Experimental: Evaluation of microtubule inhibition was performed using previously described methods.^22 Indirect immunofluorescence was used to evaluate the effects of the compounds on cellular microtubules as described previously.^38 Briefly, A-10 cells were treated for 18 h with vehicle (DMSO) or a compound, and microtubule effects were evaluated microscopically using β-tubulin antibody. The EC50 was calculated from 3 independent experiments and expressed as the mean±SD.
# HeLa cells = assay: Antiproliferative SRB assay; format: cell-based; conditions: Homo sapiens, HeLa, 48 h, read-out: IC50 ± SD in HeLa
# [2] = system: WTβ3 cells (HeLa overexpressing βIII tubulin); assay: Antiproliferative SRB assay; format: cell-based; conditions: for IC50: Homo sapiens, HeLa, SRB, 48 h, read-out: IC50 ± SD in WTβ3
# SKOV3 cells = assay: Antiproliferative SRB assay; format: cell-based; conditions: Homo sapiens, SK-OV-3, 48 h, read-out: IC50 ± SD in SKOV3 cells
# EKVX = assay: NCI 60 cell line panel; format: cell-based; conditions: Homo sapiens, NSCLC
# HOP-62 = assay: NCI 60 cell line panel; format: cell-based; conditions: Homo sapiens, NSCLC
# HOP-92 = assay: NCI 60 cell line panel; format: cell-based; conditions: Homo sapiens, NSCLC
# NCI-H460 = assay: NCI 60 cell line panel; format: cell-based; conditions: Homo sapiens, NSCLC
# NCI-H522 = assay: NCI 60 cell line panel; format: cell-based; conditions: Homo sapiens, NSCLC
# SF-268 = assay: NCI 60 cell line panel; format: cell-based; conditions: Homo sapiens, CNS Cancer
# SF-539 = assay: NCI 60 cell line panel; format: cell-based; conditions: Homo sapiens, CNS Cancer
# SNB-75 = assay: NCI 60 cell line panel; format: cell-based; conditions: Homo sapiens, CNS Cancer
# U251 = assay: NCI 60 cell line panel; format: cell-based; conditions: Homo sapiens, U-251, CNS Cancer
# IGROV1 = assay: NCI 60 cell line panel; format: cell-based; conditions: Homo sapiens, IGROV-1, Ovarian cancer
# OVCAR-3 = assay: NCI 60 cell line panel; format: cell-based; conditions: Homo sapiens, Ovarian cancer
# OVCAR-4 = assay: NCI 60 cell line panel; format: cell-based; conditions: Homo sapiens, Ovarian cancer
# OVCAR-5 = assay: NCI 60 cell line panel; format: cell-based; conditions: Homo sapiens, Ovarian cancer
# OVCAR-8 = assay: NCI 60 cell line panel; format: cell-based; conditions: Homo sapiens, Ovarian cancer
# NCI/ADR-RES = assay: NCI 60 cell line panel; format: cell-based; conditions: Homo sapiens, Ovarian cancer
# SK-OV-3 = assay: NCI 60 cell line panel; format: cell-based; conditions: Homo sapiens, Ovarian cancer
# LOX IMVI = assay: NCI 60 cell line panel; format: cell-based; conditions: Homo sapiens, Melanoma
# M14 = assay: NCI 60 cell line panel; format: cell-based; conditions: Homo sapiens, Melanoma
# MDA-MB-435 = assay: NCI 60 cell line panel; format: cell-based; conditions: Homo sapiens, Melanoma
# SK-MEL-5 = assay: NCI 60 cell line panel; format: cell-based; conditions: Homo sapiens, Melanoma
# UACC-62 = assay: NCI 60 cell line panel; format: cell-based; conditions: Homo sapiens, Melanoma
# 786-0 = assay: NCI 60 cell line panel; format: cell-based; conditions: Homo sapiens
# ACHN = assay: NCI 60 cell line panel; format: cell-based; conditions: Homo sapiens, Renal Cancer
# CAKI-1 = assay: NCI 60 cell line panel; format: cell-based; conditions: Homo sapiens, Renal Cancer
# RXF 393 = assay: NCI 60 cell line panel; format: cell-based; conditions: Homo sapiens, Renal Cancer
# SN 12C = assay: NCI 60 cell line panel; format: cell-based; conditions: Homo sapiens, SN12C, Renal Cancer
# TK-10 = assay: NCI 60 cell line panel; format: cell-based; conditions: Homo sapiens, Renal Cancer
# UO-31 = assay: NCI 60 cell line panel; format: cell-based; conditions: Homo sapiens, Renal Cancer
# COLO 205 = assay: NCI 60 cell line panel; format: cell-based; conditions: Homo sapiens, Colon Cancer
# HCC-2998 = assay: NCI 60 cell line panel; format: cell-based; conditions: Homo sapiens, Colon Cancer
# HCT-116 = assay: NCI 60 cell line panel; format: cell-based; conditions: Homo sapiens, Colon Cancer
# HCT-15 = assay: NCI 60 cell line panel; format: cell-based; conditions: Homo sapiens, Colon Cancer
# HT29 = assay: NCI 60 cell line panel; format: cell-based; conditions: Homo sapiens, HT-29, Colon Cancer
# KM12 = assay: NCI 60 cell line panel; format: cell-based; conditions: Homo sapiens, Colon Cancer
# SW-620 = assay: NCI 60 cell line panel; format: cell-based; conditions: Homo sapiens, Colon Cancer
# PC-3 = assay: NCI 60 cell line panel; format: cell-based; conditions: Homo sapiens, Prostate Cancer
# MCF7 = assay: NCI 60 cell line panel; format: cell-based; conditions: Homo sapiens, Breast Cancer
# MDA-MB-231/ATCC = assay: NCI 60 cell line panel; format: cell-based; conditions: Homo sapiens, Breast Cancer
# HS 578T = assay: NCI 60 cell line panel; format: cell-based; conditions: Homo sapiens, Breast Cancer
# BT-549 = assay: NCI 60 cell line panel; format: cell-based; conditions: Homo sapiens
# CCRF-CEM = assay: NCI 60 cell line panel; format: cell-based; conditions: Homo sapiens, Leukemia
# HL-60(TB) = assay: NCI 60 cell line panel; format: cell-based; conditions: Homo sapiens, Leukemia
# K-562 = assay: NCI 60 cell line panel; format: cell-based; conditions: Homo sapiens, K562, Leukemia
# MOLT-4 = assay: NCI 60 cell line panel; format: cell-based; conditions: Homo sapiens, Leukemia
# EGFR, sequence (P00533 25-1210): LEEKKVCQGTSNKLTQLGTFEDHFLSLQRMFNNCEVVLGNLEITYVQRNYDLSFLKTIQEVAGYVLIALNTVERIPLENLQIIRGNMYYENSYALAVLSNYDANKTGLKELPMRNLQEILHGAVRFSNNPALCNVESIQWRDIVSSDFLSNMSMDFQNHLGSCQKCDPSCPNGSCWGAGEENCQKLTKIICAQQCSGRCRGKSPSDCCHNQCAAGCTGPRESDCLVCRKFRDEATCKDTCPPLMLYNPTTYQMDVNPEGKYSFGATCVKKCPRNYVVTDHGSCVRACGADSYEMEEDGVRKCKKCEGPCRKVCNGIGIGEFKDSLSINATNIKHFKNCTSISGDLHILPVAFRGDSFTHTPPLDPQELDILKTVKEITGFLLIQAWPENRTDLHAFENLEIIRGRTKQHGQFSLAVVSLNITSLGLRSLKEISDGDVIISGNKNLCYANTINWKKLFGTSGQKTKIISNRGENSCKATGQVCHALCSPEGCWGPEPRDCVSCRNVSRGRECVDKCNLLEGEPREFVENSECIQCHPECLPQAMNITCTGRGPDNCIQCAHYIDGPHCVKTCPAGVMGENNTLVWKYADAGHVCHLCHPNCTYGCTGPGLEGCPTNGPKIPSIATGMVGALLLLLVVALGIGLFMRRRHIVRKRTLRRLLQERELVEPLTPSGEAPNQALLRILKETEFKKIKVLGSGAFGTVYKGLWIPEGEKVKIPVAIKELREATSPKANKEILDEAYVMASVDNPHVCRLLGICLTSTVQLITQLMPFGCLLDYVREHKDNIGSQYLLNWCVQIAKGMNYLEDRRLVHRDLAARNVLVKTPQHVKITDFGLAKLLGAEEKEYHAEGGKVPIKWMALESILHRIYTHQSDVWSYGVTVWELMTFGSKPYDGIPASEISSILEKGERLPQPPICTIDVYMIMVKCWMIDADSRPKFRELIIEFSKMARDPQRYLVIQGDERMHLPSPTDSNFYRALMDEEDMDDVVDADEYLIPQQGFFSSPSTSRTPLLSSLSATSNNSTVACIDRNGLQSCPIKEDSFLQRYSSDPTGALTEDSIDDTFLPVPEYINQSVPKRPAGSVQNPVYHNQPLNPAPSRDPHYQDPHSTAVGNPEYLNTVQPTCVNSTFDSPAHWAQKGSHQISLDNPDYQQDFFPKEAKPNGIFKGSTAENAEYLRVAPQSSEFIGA
smiles,measurement,setting,value
"COc1ccc2c(c1)CCCN2c1nc(C)nc2oc(C)cc12 [Compound 10, 4-(6-methoxy-3,4-dihydroquinolin-1(2H)-yl)-2,6-dimethylfuro[2,3-d]pyrimidine]",IC50,EGFR,3.4 ± 0.8 nM
same,IC50,A431 cancer cells,18 ± 2.9 nM
same,EC50,"[1]; A-10 cells, 18 h, read-out: EC50 for MT depolymerization in A-10 cells",21 nM
same,effect on cellular microtubules,[1],dose-dependent loss of cellular microtubules
same,IC50,HeLa cells,13.5 ± 0.5 nM
same,IC50,[2],9.1 ± 1.8 nM
same,IC50,SKOV3 cells,12.9 ± 1.2 nM
same,GI50,EKVX,< 10 nM
same,GI50,HOP-62,< 10 nM
same,GI50,HOP-92,58.6 nM
same,GI50,NCI-H460,< 10 nM
same,GI50,NCI-H522,< 10 nM
same,GI50,SF-268,16.8 nM
same,GI50,SF-539,< 10 nM
same,GI50,SNB-75,< 10 nM
same,GI50,U251,< 10 nM
same,GI50,IGROV1,< 10 nM
same,GI50,OVCAR-3,< 10 nM
same,GI50,OVCAR-4,51 nM
same,GI50,OVCAR-5,43 nM
same,GI50,OVCAR-8,< 10 nM
same,GI50,NCI/ADR-RES,< 10 nM
same,GI50,SK-OV-3,< 10 nM
same,GI50,LOX IMVI,< 10 nM
same,GI50,M14,< 10 nM
same,GI50,MDA-MB-435,< 10 nM
same,GI50,SK-MEL-5,< 10 nM
same,GI50,UACC-62,< 10 nM
same,GI50,786-0,< 10 nM
same,GI50,ACHN,< 10 nM
same,GI50,CAKI-1,< 10 nM
same,GI50,RXF 393,< 10 nM
same,GI50,SN 12C,< 10 nM
same,GI50,TK-10,< 10 nM
same,GI50,UO-31,< 10 nM
same,GI50,COLO 205,< 10 nM
same,GI50,HCC-2998,12 nM
same,GI50,HCT-116,< 10 nM
same,GI50,HCT-15,< 10 nM
same,GI50,HT29,< 10 nM
same,GI50,KM12,< 10 nM
same,GI50,SW-620,< 10 nM
same,GI50,PC-3,< 10 nM
same,GI50,MCF7,< 10 nM
same,GI50,MDA-MB-231/ATCC,11.4 nM
same,GI50,HS 578T,< 10 nM
same,GI50,BT-549,< 10 nM
same,GI50,CCRF-CEM,< 10 nM
same,GI50,HL-60(TB),< 10 nM
same,GI50,K-562,< 10 nM
same,GI50,MOLT-4,15 nM
"Cc1nc(N(C)c2ccc3occc3c2)c2cc(C)oc2n1 [Compound 7, N-1-benzofuran-5-yl-N,2,6-trimethylfuro[2,3-d]pyrimidin-4-amine]",IC50,EGFR,307 ± 42.1 nM
same,IC50,A431 cancer cells,73.2 ± 10.1 nM
same,EC50/IC50 ratio,[1]; EC50 MT depolymerization / IC50 MDA-435,28
same,effect on cellular microtubules,[1],dose-dependent loss of cellular microtubules
same,IC50,HeLa cells,302 ± 23.4 nM
same,IC50,[2],243 ± 15.1 nM
same,Rr value (relative resistance),[2]; WTβ3 vs HeLa,0.8
same,IC50,SKOV3 cells,425 ± 53.1 nM
same,GI50,EKVX,396 nM
same,GI50,HOP-62,75.2 nM
same,GI50,HOP-92,226 nM
same,GI50,NCI-H460,138 nM
same,GI50,NCI-H522,29.9 nM
same,GI50,SF-268,527 nM
same,GI50,SF-539,60.9 nM
same,GI50,SNB-75,103 nM
same,GI50,U251,84 nM
same,GI50,IGROV1,142 nM
same,GI50,OVCAR-3,30 nM
same,GI50,OVCAR-4,553 nM
same,GI50,OVCAR-5,531 nM
same,GI50,OVCAR-8,330 nM
same,GI50,NCI/ADR-RES,37.6 nM
same,GI50,SK-OV-3,98 nM
same,GI50,LOX IMVI,162 nM
same,GI50,M14,47.3 nM
same,GI50,MDA-MB-435,21.1 nM
same,GI50,SK-MEL-5,50.4 nM
same,GI50,UACC-62,57.1 nM
same,GI50,786-0,1040 nM
same,GI50,ACHN,265 nM
same,GI50,CAKI-1,57.9 nM
same,GI50,RXF 393,57.2 nM
same,GI50,SN 12C,611 nM
same,GI50,TK-10,382 nM
same,GI50,UO-31,278 nM
same,GI50,COLO 205,139 nM
same,GI50,HCC-2998,185 nM
same,GI50,HCT-116,77.1 nM
same,GI50,HCT-15,51.9 nM
same,GI50,HT29,51.9 nM
same,GI50,KM12,58.4 nM
same,GI50,SW-620,58.8 nM
same,GI50,PC-3,183 nM
same,GI50,MCF7,43.8 nM
same,GI50,MDA-MB-231/ATCC,223 nM
same,GI50,HS 578T,51.7 nM
same,GI50,BT-549,432 nM
same,GI50,CCRF-CEM,121 nM
same,GI50,HL-60(TB),41.2 nM
same,GI50,K-562,40.4 nM
same,GI50,MOLT-4,211 nM

# Source: US10189853B2, “Conformationally restricted 4-substituted-2,6-dimethylfuro[2,3-d]pyrimidines as anti-tumor agents” (DUQUESNE UNIVERSITY OF THE HOLY SPIRIT, priority 2014, dated 2019)
